Consider one substance from US20250011651A1, “OIL DISPERSANT FORMULATION, METHODS AND USES THEREOF” (INSTITUTO SUPERIOR TÉCNICO, priority 2021, published 2025).

The series can be described thus: Hydrophilic-lipophilic balance (HLB). It is filed as physicochemical. The following applies: single surfactant / MEL mixture. From the text: Dispersants currently used in oil spills are usually a blend of non-ionic and anionic surfactants dissolved in a solvent base. Surfactants are amphiphilic molecules containing both hydrophobic and hydrophilic regions, so they are soluble in both oil and water phases. An empirical parameter used for the classification of surfactants is the hydrophilic-lipophilic balance (HLB) number. The HLB is defined as: […]
Where Mh is the molecular weight of the hydrophilic head group of the surfactant molecule, and M is the molecular mass of the complete molecule. HLB is given on a scale of 1-20. […] A surfactant with an HLB between 8 and 12 may promote either type of emulsion, but generally promotes O/W emulsions.
In an embodiment, the results can be explained by providing the molecular level discussion of the synergy between MEL and polyethylene glycol sorbitan monooleate molecules. As explained earlier, MELs are hydrophobic and polyethylene glycol sorbitan monooleate is quite hydrophilic and water soluble. The HLB of the combination of the two surfactants can be calculated by the following expression: […]
Where, WM and WPGSE are, respectively, the weight fraction of MELs and polyethylene glycol sorbitan ester, in particular polyethylene glycol sorbitan monooleate, in the blend.

Take polyethylene glycol sorbitan monooleate: the HLB worked out at 15.
